Data set [1] is described as follows: Circular dichroism of RC-101 at different pH. In kind it is physicochemical. Particulars: 500 μg/mL in buffer, pH 7 and pH 12 versus pH 3, 0.1 cm cell. The protocol: (§1) Changes in the secondary structure of the protein were monitored by Circular dichroism (CD) on an AVIV Circular Dichroism spectrophotometer model 202 (AVIV Biomedical, Lakewood, NJ) equipped with a 0.1 cm path length quartz cell. RC-101 stability was also monitored by using a matrix-assisted laser desorption ionization-time of flight (MALDI-TOF) mass spectrometric (MS) on a Voyager DE-PRO mass spectrometer (Applied Biosystems, Foster City, CA). Potential for aggregation was evaluated by UV-spectroscopy using a NanoDrop ND-1000 spectrophotometer (NanoDrop Technologies Inc, Wilmington, DE).

Data set [2] in a line: UV spectroscopy for aggregation / ionic strength effect. In kind it is physicochemical. The protocol:
as §1

Data set [3] can be described thus: Stability of RC-101 in 3 M urea. In kind it is physicochemical.
Procedure: At each time point, the sample was removed from the incubation chamber and centrifuged for 10 min at 10,000 rpm, at 4 ± C to separate the supernatant from cell pellet. Supernatant (100 μL) was added to microcentrifuge filters Ultracel YM-10 Microcon MWCO 10,000 (Millipore Corporation, Bedford, MA), which were pre-washed with Milli Q water to eliminate any trace of propylene glycol from the filters. Samples were centrifuged twice for 15 min at 8,500 rpm, at 4 ± C. The filtrate was collected and frozen at -80 ± C until further analysis. A solution of 3 M urea was added to the cell pellet (1:1 w/w) obtained from the first centrifugation, to lyse the cells. This mixture was vortexed three times for 30 sec, and then centrifuged for 10 min at 10,000 rpm, at 4 ± C. The supernatant obtained from the cell lysate was then added to microcentrifuge filters Ultracel YM-10 Microcon MWCO 10,000 pre-washed with Milli Q water. Samples were centrifuged twice for 15 min at 8,500 rpm, at 4 ± C. The filtrate was collected and frozen at -80 ± C until analysis. […] Samples were thawed and added to PepCleanTM C-18 spin columns (Pierce Biotechnology Inc., Rockford, IL) for desalting, after column conditioning with acetonitrile:water (50:50) and equilibration with 0.1% trifluoroacetic acid. […]
The nature of data set [4]: Stability in HVF positive for bacterial vaginosis (HVF BV+), detection by LC-MS/MS. The settings on record: for detection of RC-101 by LC-MS/MS: nanoLC-SRM MS, qualitative. The protocol:
After removing the Instead Softcup®, a speculum examination was performed. Swab specimens of the endocervix were obtained using the Mini-tip Culturette TN collection system (Becton Dickinson, Sparks, MD) according to the manufacturer's guidelines. C. trachomatis and N. gonorrhoeae were detected with an amplified DNA assay based on the simultaneous amplification and detection of target DNA amplification primers and a fluorescent label detector probe. Bacterial vaginosis was detected by Gram stain and assessed by the Nugent score, where score results between 0 and 3 indicate a normal flora, between 4 and 6 indicates an intermediate state, and between 7 and 10 indicates bacterial vaginosis.
The HVF from the Instead Softcup® was removed by centrifugation of the conical tube for 10 min at 5,000 rpm. […] HVF was then removed from the cup and the pH of each HVF sample was measured with Fisher Alkacid pH filter strips (Fisher Scientific). All samples collected on a specific day were pooled to be used for the research studies. If the pH of the individual samples was higher than 5, the sample was not included in the pool but it was stored at -80°C for separate analysis. If the sample contained blood, it was immediately discarded. Samples were prepared as described in Table 1. […] Because of its high viscosity, HVF was measured by weight and not by volume. All solutions were prepared fresh and incubated with HVF (or water) at 37°C for specific periods of time (0, 2, 6, 12, 24, 48, and 72 h), unless specified otherwise. At each time point, the samples were centrifuged at 10,000 rpm for 10 min to separate the supernatant from the epithelial cells as described in the cell processing section. Both parts (supernatant and cells) were stored at -80 ± C until analyzed by LC-MS/MS. To evaluate the influence of freezing the fluid prior to the analysis, the last pool of HVF was divided into two samples: one used fresh (at the time of collection), and the other one stored at -80°C for a 3-month period. After that time period, HVF was thawed and processed for blank and RC-101 solution only, as described in Table 1. HVF samples collected with a high pH value indicative of BV were stored at -80°C as previously mentioned. After confirmation of BV on those fluid samples by Gram stain score, the fluid samples (HVF BV^+) were thawed, pooled, and processed as described in Table 1.
At each time point, the sample was removed from the incubation chamber and centrifuged for 10 min at 10,000 rpm, at 4 ± C to separate the supernatant from cell pellet. Supernatant (100 μL) was added to microcentrifuge filters Ultracel YM-10 Microcon MWCO 10,000 (Millipore Corporation, Bedford, MA), which were pre-washed with Milli Q water to eliminate any trace of propylene glycol from the filters. Samples were centrifuged twice for 15 min at 8,500 rpm, at 4 ± C. The filtrate was collected and frozen at -80 ± C until further analysis. A solution of 3 M urea was added to the cell pellet (1:1 w/w) obtained from the first centrifugation, to lyse the cells. This mixture was vortexed three times for 30 sec, and then centrifuged for 10 min at 10,000 rpm, at 4 ± C. The supernatant obtained from the cell lysate was then added to microcentrifuge filters Ultracel YM-10 Microcon MWCO 10,000 pre-washed with Milli Q water. Samples were centrifuged twice for 15 min at 8,500 rpm, at 4 ± C. The filtrate was collected and frozen at -80 ± C until analysis. […] Samples were thawed and added to PepCleanTM C-18 spin columns (Pierce Biotechnology Inc., Rockford, IL) for desalting, after column conditioning with acetonitrile:water (50:50) and equilibration with 0.1% trifluoroacetic acid. The column was washed three times with 0.1% trifluoroacetic acid, and RC-101 was eluted with acetonitrile:water (60:40) in 0.1% trifluoroacetic acid.

The values that follow come from paper PMC3199744, “Preformulation and stability in biological fluids of the retrocyclin RC-101, a potential anti-HIV topical microbicide” (AIDS Research and Therapy, 2011).

Regarding “GICRCICGKGICRCICGR (bicyclic or more) [RC-101]”, the “CD spectrum: peak shift and loss of absorbance compared to pH 3” value in data set [1] is recorded as “change in folding”. The “aggregation (increase in UV absorbance 300 to 600 nm)” value in data set [2] (500 μg/mL, phosphate buffer pH 12, UV scan (data not shown)) is “presence of aggregates”. For the same sequence, the “stability profile with high ionic strength buffers” value in data set [2] (UV spectroscopy, pH 4 and 7, high ionic strength (500 mmol/kg) phosphate buffers) is on record as “did not show any significant differences”. The “time stable in 3 M urea” value in data set [3] is on record as “at least 24 h”. Besides, the “detection of RC-101 by LC-MS/MS” value in data set [4] (HVF BV+ pool 1:1, 37°C, 2 h) is “-”; in data set [4] (HVF BV+ pool 1:1, 37°C, 6 h) it was “-”; in data set [4] (HVF BV+ pool 1:1, 37°C, 12 h), “-”; in data set [4] (HVF BV+ pool 1:1, 37°C, 24 h), “-”; in data set [4] (HVF BV+ pool 1:1, 37°C, 48 h) it was “-”; in data set [4] (HVF BV+ pool (pH 5.8 ± 0.6, stored -80°C) 1:1, 37°C, 0 h) it was “-”. Further, the “detection of RC-101 in HVF BV+” value in data set [4] (HVF BV+ pool (stored -80°C), any time point studied, supernatant or cells, 37°C, LC-MS/MS) is given as “undetectable”.
